From patent publication US8765433B2, “Alcohol dehydrogenases (ADH) useful for fermentive production of lower alkyl alcohols” (priority 2009, dated 2014)

Tests used:
Assay type in all cases: biochemical
[1] = target: T1, horse liver ADH (HLADH), SEQ ID NO: 21 (Equus caballus, UniProt P00327); test: isobutanol oxidation kinetics; conditions: 30° C., pH 8.8, 7.5 mM NAD
T1 construct: purchased Sigma A-6128
Procedure: (§1) As a routine practice, the crude extracts and purified proteins were assayed for butanol oxidation activity, in order to ensure that the recombinant proteins were active throughout the purification process. […] Alcohol oxidation activities were carried out in 50 mM sodium phosphate buffer at pH 8.8 and aldehyde reduction reactions were assayed in 190 mM potassium phosphate buffer at pH 7.0. Depending on the nature of reaction being carried out, the enzyme and cofactor stocks were diluted in the reaction buffers at the respective pHs. Either buffer or cell extract prepared from the proprietary E. coli strain (with no ADH plasmid) was used as the negative control for assays with purified protein and cell-free extracts, respectively.
Kinetic constants of the ADH enzymes were calculated and compared to identify those candidate ADH enzymes with the most desirable properties for the conversion of isobutyraldehyde to isobutanol in the last step of the engineered pathway for isobutanol production. The assays for determining the kinetic constants were carried out using initial rates from the assays described above. […] The concentration of a given enzyme was such that it was conducive for the measurement of initial velocities over a 1-min time course. For each enzyme, Michaelis-Menten plots were generated with a broad range of substrate concentrations. Rough estimates of KM were obtained, based on which the assays were redesigned so as to use substrate concentrations in the range 0.5 to 10 times the KM value, to be able to obtain the appropriate kinetic constants. […] When calculating the KI for isobutanol, the same reactions were carried out in the presence of varying concentrations of isobutanol (generally 0-535 mM) in the reaction (see FIG. 7, for example). Reactions with isobutanol substrate were performed at 30° C. in 50 mM Sodium phosphate buffer, pH 8.8, containing 7.5 mM NAD. The Enzyme kinetics module (Version 1.3) of SigmaPlot 11 (Systat Software, Inc.) was used to fit data to Michaelis-Menten equations and calculate the kinetic constants. The kcat/KM is derived from the individual numbers of kcat and KM and not an experimentally determined value. The ratios of the KM, KI, and kcat/KM for each candidate enzyme as compared to the same parameter for SadB are given in Table 9.
(§2) For those enzymes marked with an asterisk in Table 7, at least 3 assays were performed with separate preparations of the enzyme. All other numbers are values from either one assay or are averages from 2 assays performed with the same enzyme sample.

[2] = target: T2, Saccharomyces cerevisiae ADH6 (ScADH6), SEQ ID NO: 22 (Saccharomyces cerevisiae, UniProt Q04894); test: isobutyraldehyde reduction kinetics (A340, initial rates); conditions: relative to SadB
T2 sequence (Q04894 1-360): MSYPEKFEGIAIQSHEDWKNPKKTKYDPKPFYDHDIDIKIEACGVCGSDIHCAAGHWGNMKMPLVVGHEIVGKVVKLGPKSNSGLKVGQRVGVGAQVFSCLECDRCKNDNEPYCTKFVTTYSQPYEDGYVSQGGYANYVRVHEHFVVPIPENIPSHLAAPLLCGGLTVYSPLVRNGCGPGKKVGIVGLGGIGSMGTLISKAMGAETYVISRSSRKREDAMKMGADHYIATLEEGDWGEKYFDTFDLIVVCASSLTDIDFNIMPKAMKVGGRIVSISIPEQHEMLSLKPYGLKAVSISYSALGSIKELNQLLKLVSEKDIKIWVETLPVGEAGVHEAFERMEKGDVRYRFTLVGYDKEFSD
Excerpt: (§3) This example describes preparation of ADH-gene constructs for over-expression/purification and measurement of enzyme activities using a time-course assay. Horse-liver ADH (HLADH; A-6128) was purchased from Sigma. Achromobacter xylosoxidans SadB (SadB), Saccharomyces cerevisiae ADH6 (ScADH6) and ADH7 (ScADH7), Entamoeba histolytica ADH1 (EhADH1), Bos Taurus Aldehyde Reductase (BtARD), Beijerinckia indica subsp. Indica ATCC 9039 (BiADH), Clostridium beijerinckii ADH (CbADH), Rana perezi ADH8 (RpADH8), Rattus norvegicus ADH1 (RnADH1), Thermus sp. ATN1 ADH (TADH), Phenylobacterium zucineum HLK1 ADH (PzADH), Methylocella silvestris BL2 ADH (MsADH), Acinetobacter baumannii AYE ADH (AbADH), Geobacillus sp. WCH70 ADH (GbADH), Vanderwaltozyma polyspora DSM 70294 ADH (VpADH), Mucor circinelloides ADH (McADH), and Rhodococcus erythropolis PR4ADH (ReADH) were the candidates for which subclones were prepared for protein expression and purification.
as §1
(§4) Kinetic constants of the ADH enzymes were calculated and compared to identify those candidate ADH enzymes with the most desirable properties for the conversion of isobutyraldehyde to isobutanol in the last step of the engineered pathway for isobutanol production. The assays for determining the kinetic constants were carried out using initial rates from the assays described above. […] The concentration of a given enzyme was such that it was conducive for the measurement of initial velocities over a 1-min time course. For each enzyme, Michaelis-Menten plots were generated with a broad range of substrate concentrations. Rough estimates of KM were obtained, based on which the assays were redesigned so as to use substrate concentrations in the range 0.5 to 10 times the KM value, to be able to obtain the appropriate kinetic constants. […] Reactions with isobutanol substrate were performed at 30° C. in 50 mM Sodium phosphate buffer, pH 8.8, containing 7.5 mM NAD. The Enzyme kinetics module (Version 1.3) of SigmaPlot 11 (Systat Software, Inc.) was used to fit data to Michaelis-Menten equations and calculate the kinetic constants. The kcat/KM is derived from the individual numbers of kcat and KM and not an experimentally determined value.
as §2

[3] = target: T3, Saccharomyces cerevisiae ADH7 (ScADH7), SEQ ID NO: 23 (Saccharomyces cerevisiae, UniProt P25377); test: as above
T3 sequence (P25377 1-361): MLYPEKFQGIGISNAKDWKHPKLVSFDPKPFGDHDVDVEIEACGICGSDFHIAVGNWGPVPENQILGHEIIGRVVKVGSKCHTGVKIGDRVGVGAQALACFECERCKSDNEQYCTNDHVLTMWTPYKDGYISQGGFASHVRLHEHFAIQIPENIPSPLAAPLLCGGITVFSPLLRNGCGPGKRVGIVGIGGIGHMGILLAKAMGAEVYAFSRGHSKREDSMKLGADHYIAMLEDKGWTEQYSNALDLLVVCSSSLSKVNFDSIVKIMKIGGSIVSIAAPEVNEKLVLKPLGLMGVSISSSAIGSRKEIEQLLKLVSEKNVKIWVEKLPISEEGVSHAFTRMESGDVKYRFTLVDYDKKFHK
Excerpt: as §3, §1, §4, §2

[4] = target: T1, horse liver ADH (HLADH), SEQ ID NO: 21; test: as above; conditions: relative to SadB
Excerpt: as §3, §1, §4, §2

T1 sequence (P00327 whole entry): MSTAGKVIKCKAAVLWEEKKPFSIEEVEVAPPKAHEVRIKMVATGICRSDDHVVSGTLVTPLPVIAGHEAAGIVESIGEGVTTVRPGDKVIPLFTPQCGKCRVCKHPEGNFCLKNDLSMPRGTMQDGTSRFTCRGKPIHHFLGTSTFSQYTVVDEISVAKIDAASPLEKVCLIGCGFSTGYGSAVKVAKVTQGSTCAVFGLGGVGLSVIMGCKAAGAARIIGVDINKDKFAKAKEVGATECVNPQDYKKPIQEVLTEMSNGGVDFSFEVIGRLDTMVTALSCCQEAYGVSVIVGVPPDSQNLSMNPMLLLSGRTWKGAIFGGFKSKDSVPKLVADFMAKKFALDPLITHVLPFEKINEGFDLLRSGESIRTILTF

For CC(C)CO [isobutanol, 2-methylpropan-1-ol], the “kcat (isobutanol oxidation)” value [1] was “[Isobutanol oxidation: kcat = 5 sec^−1;”, the “KI as a percentage of the same parameter for SadB” value (from here on “KI as a percentage”) [2] was 650% and the Ki ([3]; read-out: KI (Isobutanol)) was 88 mM. The “KI as a percentage” value ([3]; relative to SadB) was 49% and the “KI as a percentage” value [4] was 1%.
For CC(C)C=O [isobutyraldehyde], the “KM as a percentage of the same parameter for SadB” value [2] was 60%, the “kcat as a percentage of the same parameter for SadB” value (“kcat as a percentage” for short) [2] was 43% and the “kcat/KM as a percentage of the same parameter for SadB” value (shortened to “kcat/KM as a percentage”) [2] was 77%. The “KM as a percentage of the same parameter for SadB” value ([3]; relative to SadB) was 30%, the “kcat as a percentage” value ([3]; relative to SadB) was 33% and the “kcat/KM as a percentage” value ([3]; relative to SadB) was 114%. The “KM as a percentage of the same parameter for SadB” value [4] was 10%, the “kcat as a percentage” value [4] was 7% and the “kcat/KM as a percentage” value [4] was 78%.
